According to patent US11673886B2, “5-membered and bicyclic heterocyclic amides as inhibitors of ROCK” (BRISTOL-MYERS SQUIBB COMPANY, priority 2017, dated 2023):

Tested on: ROCK
Experiment: not given
Settings: rat, in vivo; cited from earlier work

Compound | infarct size and neurologic deficit
O=S(=O)(c1cccc2cnccc12)N1CCCNCC1 [fasudil] | reduce both the infarct size and neurologic deficit

Target: ROCK2 (Homo sapiens (Human), UniProt O75116)
Experiment: ROCK2 assay (kinase inhibition, FITC peptide substrate, LABCHIP 3000 Reader)
Format: biochemical
Settings: 5 μM ATP, 1.5 μM peptide substrate

Chain of ROCK2 (O75116 whole entry, species assumed): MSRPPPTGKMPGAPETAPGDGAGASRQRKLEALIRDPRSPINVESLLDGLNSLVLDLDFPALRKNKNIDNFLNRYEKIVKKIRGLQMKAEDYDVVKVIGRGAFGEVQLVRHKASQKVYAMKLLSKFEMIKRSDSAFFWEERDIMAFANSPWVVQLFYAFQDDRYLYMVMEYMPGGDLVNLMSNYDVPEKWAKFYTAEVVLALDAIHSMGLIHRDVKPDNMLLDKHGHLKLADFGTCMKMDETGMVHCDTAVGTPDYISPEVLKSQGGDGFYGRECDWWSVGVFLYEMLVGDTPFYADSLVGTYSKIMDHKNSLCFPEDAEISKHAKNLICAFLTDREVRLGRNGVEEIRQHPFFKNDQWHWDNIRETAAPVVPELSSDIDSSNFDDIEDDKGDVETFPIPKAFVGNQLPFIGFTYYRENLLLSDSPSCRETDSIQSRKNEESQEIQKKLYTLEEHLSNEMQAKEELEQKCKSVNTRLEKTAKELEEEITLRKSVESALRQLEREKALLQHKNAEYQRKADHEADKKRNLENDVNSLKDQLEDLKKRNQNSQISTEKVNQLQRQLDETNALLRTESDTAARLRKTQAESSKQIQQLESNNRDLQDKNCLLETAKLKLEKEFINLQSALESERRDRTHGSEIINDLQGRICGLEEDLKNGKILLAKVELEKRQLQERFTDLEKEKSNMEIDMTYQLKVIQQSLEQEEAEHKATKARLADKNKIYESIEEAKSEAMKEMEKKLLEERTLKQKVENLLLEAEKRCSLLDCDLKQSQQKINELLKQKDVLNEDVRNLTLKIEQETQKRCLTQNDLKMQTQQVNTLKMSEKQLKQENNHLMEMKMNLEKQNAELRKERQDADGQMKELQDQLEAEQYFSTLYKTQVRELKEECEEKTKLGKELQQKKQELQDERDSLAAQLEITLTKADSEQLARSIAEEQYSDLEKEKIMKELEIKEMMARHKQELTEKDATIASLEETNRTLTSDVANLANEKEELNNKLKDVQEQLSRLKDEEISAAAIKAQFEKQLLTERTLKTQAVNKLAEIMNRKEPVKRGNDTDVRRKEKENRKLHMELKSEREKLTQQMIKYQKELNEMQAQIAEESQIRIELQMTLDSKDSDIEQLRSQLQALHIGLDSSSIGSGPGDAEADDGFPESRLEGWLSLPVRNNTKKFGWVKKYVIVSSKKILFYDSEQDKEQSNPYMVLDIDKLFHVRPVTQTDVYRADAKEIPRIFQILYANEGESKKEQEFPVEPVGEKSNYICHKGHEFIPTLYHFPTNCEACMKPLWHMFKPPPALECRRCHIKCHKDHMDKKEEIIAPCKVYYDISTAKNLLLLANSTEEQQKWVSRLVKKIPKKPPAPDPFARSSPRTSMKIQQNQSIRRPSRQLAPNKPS

Compound | IC50 [nM]
2-cyclopropyl-4- {[(aR)-6-{4-[(1R)- 1-hydroxyethyl]- 2,5- dioxoimidazolidin- 1- yl}spiro[3.3]heptan- 2-yl]oxy}-1,3- thiazole-5- carboxamide [Example 109] | 330
[H][C@]1(Oc2c(C(N)=O)sc3ccccc23)C[C@]2(C[C@@H](NC(=O)c3cnn4c(C5CC5)c(OCC(C)(C)O)ccc34)C2)C1 (stereo partly drawn) [Example 2, N-((aR)-6-((2-Carbamoylbenzo[b]thiophen-3-yl)oxy)spiro[3.3]heptan-2-yl)-7-cyclopropyl-6-(2-hydroxy-2-methylpropoxy)pyrazolo[1,5-a]pyridine-3-carboxamide] | 20
CCn1cc(C(N)=O)c(O[C@H]2CC3(C[C@H](NC(=O)c4cnn5c(C6CC6)c(OCC(C)(C)O)ccc45)C3)C2)n1 (stereo partly drawn) [Example 19, 3-({(aR)-6-[7-cyclopropyl-6-(2-hydroxy-2-methylpropoxy)pyra-zolo[1,5-a]pyridine-3-amido]spiro[3.3]hep-tan-2-yl}oxy)-1-ethyl-1H-pyrazole-4-carboxamide] | 10.5
COCCn1cc(C(N)=O)c(O[C@H]2CC3(C[C@H](NC(=O)c4cnn5c(C6CC6)c(OCC(C)(C)O)ccc45)C3)C2)n1 (stereo partly drawn) [Example 23, 3-({(aR)-6-[7-cyclopropyl-6-(2-hydroxy-2-methylpropoxy)pyra-zolo[1,5-a]pyridine-3-amido]spiro[3.3]hep-tan-2-yl}oxy)-1-(2-methoxyethyl)-1H-pyrazole-4-carboxamide] | 77.7
CC(C)(O)COc1ccc2c(C(=O)N[C@H]3C[C@]4(C3)C[C@H](Oc3c(C(N)=O)cnn3CCCN)C4)cnn2c1C1CC1 (stereo partly drawn) [Example 28, 1-(3-aminopropyl)-5-({(aR)-6-[7-cyclopropyl-6-(2-hydroxy-2-methylpropoxy)pyra-zolo[1,5-a]pyridine-3-amido]spiro[3.3]hep-tan-2-yl}oxy)-1H-pyrazole-4-carboxamide] | 551
NC(=O)c1sc(C2CC2)nc1O[C@H]1C[C@@]2(C[C@H](NC(=O)c3cnn4cc(OCC(F)(F)F)ccc34)C2)C1 (stereo partly drawn) [Example 62, 2-cyclopropyl-4-{[(aR)-6-[6-(2,2,2-trifluoroethoxy)pyra-zolo[1,5-a]pyridine-3-amido]spiro[3.3]hep-tan-2-yl]oxy}-1,3-thiazole-5-carboxamide] | 11.6
NC(=O)c1c(O[C@H]2CC3(C[C@H](NC(=O)c4cnn5cc(OCC(F)F)ccc45)C3)C2)nn2ccccc12 (stereo partly drawn) [Example 122, 2-{[(4s)-6-[6-(2,2-difluoroethoxy)pyrazolo[1,5-a]pyridine-3-amido]spiro[3.3]heptan-2-yl]oxy}pyrazolo[1,5-a]pyridine-3-carboxamide] | 117
Cc1ccn2nc(O[C@H]3CC4(C[C@H](NC(=O)c5nn(C(F)F)c6cc(OCC(C)(C)O)ccc56)C4)C3)c(C(N)=O)c2c1 (stereo partly drawn) [Example 132, 1-(difluoromethyl)-6-(2-hydroxy-2-methylpropoxy)-N-[(4s)-6-({3-carbamoyl-5-methylpyrazolo[1,5-a]pyridin-2-yl}oxy)spiro[3.3]heptan-2-yl]-1H-indazole-3-carboxamide] | 223
Cc1sc2cc(C(N)=O)c(O[C@H]3C[C@@]4(C[C@H](NC(=O)c5nnc(NCC(C)C)s5)C4)C3)nc2c1C (stereo partly drawn) [Example 162, 5-[(2-methylpropyl)amino]-N-[(4s)-6-({6-carbamoyl-2,3-dimethylthieno[3,2-b]pyridin-5-yl}oxy)spiro[3.3]heptan-2-yl]-1,3,4-thiadiazole-2-carboxamide] | 162

Tested on: ROCK
Experiment: not given
Settings: long term treatment; cited from earlier work

Compound | coronary constrictive remodeling | coronary stenosis
O=S(=O)(c1cccc2cnccc12)N1CCCNCC1 [fasudil] | promote a regression of coronary constrictive remodeling | progressively reduce coronary stenosis
